Assay results: patent publication US20110177105A1, “Novel Selective Inhibitors of Ubiquitin Specific Protease 7, the Pharmaceutical Compositions Thereof and Their Therapeutic Applications” (priority 2010, published 2011)
pIC50: −log10 of the molar value.

Key:
[1] = target: USP7 (Homo sapiens, UniProt Q93009); assay: USP7 activity assay (Ub-AMC); assay type: biochemical; parameters: Full-length wild-type human USP7 and its catalytic mutant (cysteine 223 replaced by alanine, C223A) were produced as N-terminally His-tagged fusions; His tag (pFastBac-HT) (N); made in house; host or cells: Spodoptera frugiperda Sf9 (or High Five) insect cells, baculovirus; details: 300 nM Ub-AMC, 100 pM enzyme, 30 min pre-incubation; read-out: USP7 (inhibition of deubiquitinating activity)
Text: The cDNA encoding USP7 was obtained by PCR amplification from placenta mRNA. USP7 cDNA was subcloned by PCR into a baculovirus expression vector (pFastBac-HT; Invitrogen). Full-length wild-type human USP7 and its catalytic mutant (cysteine 223 replaced by alanine, C223A) were produced as N-terminally His-tagged fusions in Spodoptera frugiperda cells (Sf9, Invitrogen), using the Bac-to-Bac Baculovirus system from Invitrogen according to the manufacturer's instructions. pFastBac-HT-B-USP7 was used to transform DH10bac cells (Invitrogen), and blue/white selection was carried out on X-gal/IPTG agar plates. Bacmid DNA was prepared by an alkaline lysis procedure. The integrity of the bacmid minipreps and their orientation were checked by PCR, using generic and specific primers. Sf9 insect cells were cultured in InsectXpress medium (Cambrex) at 27° C. and transfected with the corresponding bacmid, using GeneShuttle 40 (Q-BIOgen). Viruses were recovered in the supernatant 72 h after transfection. Viruses were amplified by infecting insect cells (Sf9 or High Five cells; invitrogen) in 50 ml InsectXpress medium in a 150 cm^2 cell culture flask with 500 μl of the supernatant from transfected Sf9 cells. Following the second round of amplification, infected cells were recovered by rapid SDS lysis, boiled for 5 min at 100° C., sonicated briefly and centrifuged for 20 min at 14,000 g. Expression levels in infected Sf9 cells were compared with those in uninfected cells. Fusion proteins were then allowed to bind to TALON beads (BD Biosciences, TALON metal affinity resin) for 30 min at 4° C. with gentle rocking. Beads were extensively washed (50 mM sodium phosphate buffer pH 7.0, 500 mM NaCl, 10 mM Imidazole, 0.5% Triton X-100 and 10% glycerol) and bound proteins were eluted in wash buffer supplemented with 250 mM Imidazole (Sigma). Eluted fractions were resolved on 4-12% NuPAGE gels (Novex, Invitrogen). Fractions containing high concentrations of purified proteins (purity>95%) were dialyzed (20 mM Tris HCl pH 7.6, 200 mM NaCl, 1 mM DTT, 1 mM EDTA and 10% glycerol) were aliquoted and snap frozen in liquid nitrogen before storage at −80° C.
USP7 was diluted in USP buffer (50 mM Tris HCl; 0.5 mM EDTA; 5 mM DTT; 0.01% Triton X-100; Bovine Serum Albumin 0.05 mg·ml^−1 pH 7.6). Compounds stocks (10 mM) were stored at −20° C. in DMSO. Compounds were tested at different concentrations: from 200 μM to 91 nM.
Reactions were performed as duplicates in Black 384 well plates (small volumes microplates; Greiner; 10 μl final reaction volume). The substrate concentration for USP7 was 300 nM Ub-AMC (Chem. Biol., 2003, 10, p. 837-846) (Boston Biochem). The concentrations of the enzyme (USP7) in specificity assays was 100 pM. The concentrations were determined in order to perform specificity assays under initial velocities at fixed substrate concentration. Compounds were pre-incubated with enzymes for 30 minutes at 25° C. Reactions were initiated by addition of substrate to the plates containing the enzymes (+/−compounds) diluted in assay buffer. Reactions were incubated for 60 minutes at 37° C. Reactions were stopped by adding acetic acid (100 mM final). Readings were performed on a Pherastar Fluorescent Reader (BMG). λ Emission 380 nm; λ Excitation=460 nm. Data (mean values+/−standard deviation) were analyzed as % of control (no compound) and plotted as percentage versus the Log of the compound concentration using GraphPad (Prism). Data were fitted to a sigmoidal model (variable slope).

[2] = system: HCT116 colon cancer cells; assay: HCT116 cell viability and proliferation assay (MTS); assay type: cell-based; details: Homo sapiens, HCT-116, HCT116, 72 hours, read-out: Cell viability (MTS): HCT116 Gl50 Day 3
Protocol: HCT116 colon cancer cells were obtained from ATCC (American Type Culture Collection), and maintained in Mc Coy's 5A medium containing 10% FBS, 3 mM glutamine and 1% penicillin/streptomycin. Cells were incubated at 37° C. in a humidified atmosphere containing 5% CO2.
Cell viability was assayed using the MTS technique in 96-well culture plates (CellTiter 96® Aqueous Non-Radioactive Cell Proliferation Assay, Promega) according to the manufacturer's instructions. MTS (3-(4,5-dimethyl-thiazol-2-yl)-5-(3-carboxy-methoxyphenyl)-2-(4-sulfophenyl)-2H-tetra-zolium) is a MTT-derived tetrazolium that is reduced in metabolically active cells into a soluble, cell-permeant formazan. The amount of formazan, detected by its absorbance at 492 nm is proportional to the number of living, metabolically active cells.
10^3 HCT116 cells were seeded per well. 24 hours later, the medium was changed and the cells treated in triplicate with the concentrations of each compound from 100 μM to 50 nM. The compounds were diluted in 100% DMSO, whose final concentration on cells was kept at 0.5%.
Cells were incubated with the compounds for 72 hours, and their viability then assayed by the addition of MTS for 2 hours. Absorbance at 492 nm was measured directly from the 96-well culture plates. GI50 (Growth Inhibition 50) concentrations for each compound were calculated using a sigmoidal variable slope fit (Prism 4.0, Graphpad Softwares). Values represent mean of three independent experiments.

Chain of USP7 (Q93009 whole entry, the tested form may be a part): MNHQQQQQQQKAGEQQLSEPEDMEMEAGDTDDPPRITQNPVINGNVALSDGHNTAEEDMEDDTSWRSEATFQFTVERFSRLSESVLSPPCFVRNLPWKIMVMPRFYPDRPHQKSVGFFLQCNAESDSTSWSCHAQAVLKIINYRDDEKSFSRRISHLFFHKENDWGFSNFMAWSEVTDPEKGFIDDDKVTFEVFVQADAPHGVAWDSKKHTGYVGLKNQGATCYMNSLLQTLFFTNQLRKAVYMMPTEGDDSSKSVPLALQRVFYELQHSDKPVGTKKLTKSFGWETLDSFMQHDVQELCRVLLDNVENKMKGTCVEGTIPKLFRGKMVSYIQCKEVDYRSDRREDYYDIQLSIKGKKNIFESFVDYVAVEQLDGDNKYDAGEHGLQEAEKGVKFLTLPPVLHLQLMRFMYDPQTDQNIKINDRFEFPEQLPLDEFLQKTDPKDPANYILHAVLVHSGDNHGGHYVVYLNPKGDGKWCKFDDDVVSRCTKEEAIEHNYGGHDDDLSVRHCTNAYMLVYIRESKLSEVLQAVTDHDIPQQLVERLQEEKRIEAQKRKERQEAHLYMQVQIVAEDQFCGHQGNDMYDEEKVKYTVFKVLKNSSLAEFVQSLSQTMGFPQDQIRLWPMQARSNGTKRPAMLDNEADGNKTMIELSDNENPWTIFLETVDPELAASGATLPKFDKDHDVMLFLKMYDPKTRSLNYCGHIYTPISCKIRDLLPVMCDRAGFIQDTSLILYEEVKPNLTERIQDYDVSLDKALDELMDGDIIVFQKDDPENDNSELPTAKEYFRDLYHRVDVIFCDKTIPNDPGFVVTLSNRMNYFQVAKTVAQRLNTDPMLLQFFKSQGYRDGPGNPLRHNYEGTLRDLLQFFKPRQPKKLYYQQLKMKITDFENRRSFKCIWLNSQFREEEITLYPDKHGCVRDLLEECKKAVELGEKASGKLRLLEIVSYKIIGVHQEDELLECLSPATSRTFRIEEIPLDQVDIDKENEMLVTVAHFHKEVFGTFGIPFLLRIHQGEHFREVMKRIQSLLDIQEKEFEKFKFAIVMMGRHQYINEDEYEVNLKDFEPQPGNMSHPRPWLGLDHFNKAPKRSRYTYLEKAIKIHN

pIC50 [1] | pIC50 [2] | SMILES
4.65 | 5.40 | CCN(CCCNC(=O)c1ccc2c(Cl)c3c(nc2c1)CCCC3)Cc1ccccc1 [Example 5, 9-Chloro-5,6,7,8-tetrahydro-acridine-3-carboxylic acid [3-(benzyl-ethyl-amino)-propyl]-amide]
4.62 | 5.41 | CCCN(CCC)CCCNC(=O)c1ccc2c(Cl)c3c(nc2c1)CCCC3 [Example 6, 9-Chloro-5,6,7,8-tetrahydro-acridine-3-carboxylic acid (3-dipropylamino-propyl)-amide]
4.59 | 5.23 | O=C(NCCCN1CCCC1)c1ccc2c(Cl)c3c(nc2c1)CCCC3 [Example 8, 9-Chloro-5,6,7,8-tetrahydro-acridine-3-carboxylic acid (3-pyrrolidin-1-yl-propyl)-amide]
4.53 | 5.30 | CCN(CC)CCCNC(=O)c1ccc2c(Cl)c3c(nc2c1)CCCC3 [Example 10, 9-Chloro-5,6,7,8-tetrahydro-acridine-3-carboxylic acid (3-diethylamino-propyl)-amide]
4.63 | 5.40 | CCCCN(CC)CCNC(=O)c1ccc2c(Cl)c3c(nc2c1)CCCC3 [Example 4, 9-Chloro-5,6,7,8-tetrahydro-acridine-3-carboxylic acid [2-(butyl-ethyl-amino)-ethyl]-amide]
4.53 | 5.11 | CN(C)CCNC(=O)c1ccc2c(Cl)c3c(nc2c1)CCCC3 [Example 11, 9-Chloro-5,6,7,8-tetrahydro-acridine-3-carboxylic acid (2-dimethylamino-ethyl)-amide]
4.55 | 5.39 | CN(CCCNC(=O)c1ccc2c(Cl)c3c(nc2c1)CCCC3)Cc1ccccc1 [Example 14, 9-Chloro-5,6,7,8-tetrahydro-acridine-3-carboxylic acid [3-(benzyl-methyl-amino)-propyl]-amide]
4.94 | 5.30 | CCN1CCCC1CNC(=O)c1ccc2c(Cl)c3c(nc2c1)CCCC3 (centres unmarked) [Example 2, 9-Chloro-5,6,7,8-tetrahydro-acridine-3-carboxylic acid (1-ethyl-pyrrolidin-2-ylmethyl)-amide]
4.91 | 5.46 | CCCN(CCC)CCNC(=O)c1ccc2c(Cl)c3c(nc2c1)CCCC3 [Example 3, 9-Chloro-5,6,7,8-tetrahydro-acridine-3-carboxylic acid (2-dipropylamino-ethyl)-amide]
4.34 | 4.87 | O=C(c1ccc2c(Cl)c3c(nc2c1)CCCC3)N1CCC(N2CCCCC2)CC1 [Example 16, [1,4′]Bipiperidinyl-1′-yl-(9-chloro-5,6,7,8-tetrahydro-acridin-3-yl)-methanone]
4.54 | 5.44 | CC1CCCC(C)N1CCCNC(=O)c1ccc2c(Cl)c3c(nc2c1)CCCC3 (centres unmarked) [Example 9, 9-Chloro-5,6,7,8-tetrahydro-acridine-3-carboxylic acid [3-(2,6-dimethyl-piperidin-1-yl)-propyl]-amide]
4.42 | 4.70 | O=C(c1ccc2c(Cl)c3c(nc2c1)CCCC3)N1CCCCCC1 [Example 12, Azepan-1-yl-(9-chloro-5,6,7,8-tetrahydro-acridin-3-yl)-methanone]
4.37 | 5.13 | CN1CCN(CCCNC(=O)c2ccc3c(Cl)c4c(nc3c2)CCCC4)CC1 [Example 15, 9-Chloro-5,6,7,8-tetrahydro-acridine-3-carboxylic acid [3-(4-methyl-piperazin-1-yl)-propyl]-amide]
5.04 | 5.70 | Cc1cccc(CN2CCC(CNC(=O)c3ccc4c(Cl)c5c(nc4c3)CCCC5)CC2)c1 [Example 1, 9-Chloro-5,6,7,8-tetrahydro-acridine-3-carboxylic acid [1-(3-methyl-benzyl)-piperidin-4-ylmethyl]-amide]
4.42 | 5.23 | CCCN1CCN(CCCNC(=O)c2ccc3c(Cl)c4c(nc3c2)CCCC4)CC1 [Example 13, 9-Chloro-5,6,7,8-tetrahydro-acridine-3-carboxylic acid [3-(4-propyl-piperazin-1-yl)-propyl]-amide]

SMILES | pIC50 [1] | pIC50 [2]
CCN(CC)CCNC(=O)c1ccc2c(Cl)c3c(nc2c1)CCCC3 [Example 7, 9-Chloro-5,6,7,8-tetrahydro-acridine-3-carboxylic acid (2-diethylamino-ethyl)-amide] | 4.60 | 5.37
